Results from patent publication US10508992B2, “Method and probe for monitoring oxygen status in live mammalian cells” (University College Cork, National University of Ir Cork, priority 2010, dated 2019).

Test system: MEF cells
Conditions: MEF cells loaded with probe 10 ug/ml, 12 h; different concentrations, added at 30 min, FIG. 6
Protocol: The plate was then measured on a Victor 2 reader as described in Example 4. Initially it was monitored for ˜30 min to reach O2 and temperature equilibrium and obtain basal signals, then quickly withdrawn from the reader, compounds were added to the cells (10 ul of 10× stock solution in each well) and monitoring was resumed. Measured TR-F intensity signals for each sample well were converted into phosphorescence lifetime (t) values and plotted. Control samples and repetitive additions were incorporated as appropriate.

Q: For N#CC(C#N)=NNc1ccc(OC(F)(F)F)cc1 [FCCP], which “response of probe phosphorescence lifetime to stimulation” value is on record?
A: Increases in probe lifetime
